Assay results as given in the supplement of paper PMC10307832.

Tests used:
Test in all cases: relative viability (nuclei count vs DMSO), 5 days (fraction); higher = more cells survive
Kobe2602 + Lapatinib = compound: C1=CC(=CC=C1NC(=S)NNC2=C(C=C(C=C2[N+](=O)[O-])C(F)(F)F)[N+](=O)[O-])F [Kobe2602] + CS(=O)(=O)CCNCc1ccc(-c2ccc3ncnc(Nc4ccc(OCc5cccc(F)c5)c(Cl)c4)c3c2)o1 [Lapatinib] (partner 2 µM)
In short: (§1)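 Medians of duplicate plates are given as relative viability. That measure is the nuclei count in treated wells divided by the count in vehicle wells. Counts were taken on 4× images of lung cancer cell lines in 1536-well plates, 5 days after pin-tool dosing the day after seeding with one drug alone or a fixed anchor-drug dose plus five library-drug doses (not always all listed) in √10 steps.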

Kobe2602 + Pictilisib = compound: C1=CC(=CC=C1NC(=S)NNC2=C(C=C(C=C2[N+](=O)[O-])C(F)(F)F)[N+](=O)[O-])F [Kobe2602] + CS(=O)(=O)N1CCN(Cc2cc3nc(-c4cccc5[nH]ncc45)nc(N4CCOCC4)c3s2)CC1 [Pictilisib] (partner 1 µM)
In short: as §1

Zosuquidar + Pictilisib = compound: O[C@@H](COc1cccc2ncccc12)CN1CCN([C@@H]2c3ccccc3[C@@H]3[C@H](c4ccccc42)C3(F)F)CC1 [Zosuquidar] + CS(=O)(=O)N1CCN(Cc2cc3nc(-c4cccc5[nH]ncc45)nc(N4CCOCC4)c3s2)CC1 [Pictilisib] (partner 1 µM)
In short: as §1

Zosuquidar + Decitabine = compound: O[C@@H](COc1cccc2ncccc12)CN1CCN([C@@H]2c3ccccc3[C@@H]3[C@H](c4ccccc42)C3(F)F)CC1 [Zosuquidar] + Nc1ncn([C@H]2C[C@H](O)[C@@H](CO)O2)c(=O)n1 [Decitabine] (partner 2 µM)
In short: as §1

Cell Line | relative viability (Kobe2602 + Lapatinib; first compound 0.2 µM) | relative viability (Kobe2602 + Lapatinib; first compound 0.6325 µM) | relative viability (Kobe2602 + Lapatinib; first compound 2 µM) | relative viability (Kobe2602 + Lapatinib; first compound 6.325 µM) | relative viability (Kobe2602 + Lapatinib; first compound 20 µM) | relative viability (Kobe2602 + Pictilisib; first compound 0.2 µM) | relative viability (Kobe2602 + Pictilisib; first compound 0.6325 µM) | relative viability (Kobe2602 + Pictilisib; first compound 2 µM) | relative viability (Kobe2602 + Pictilisib; first compound 6.325 µM) | relative viability (Kobe2602 + Pictilisib; first compound 20 µM) | relative viability (Zosuquidar + Pictilisib; first compound 0.01 µM) | relative viability (Zosuquidar + Pictilisib; first compound 0.03162 µM) | relative viability (Zosuquidar + Pictilisib; first compound 0.1 µM) | relative viability (Zosuquidar + Pictilisib; first compound 0.3162 µM) | relative viability (Zosuquidar + Pictilisib; first compound 1 µM) | relative viability (Zosuquidar + Decitabine; first compound 0.01 µM) | relative viability (Zosuquidar + Decitabine; first compound 0.03162 µM) | relative viability (Zosuquidar + Decitabine; first compound 0.1 µM) | relative viability (Zosuquidar + Decitabine; first compound 0.3162 µM) | relative viability (Zosuquidar + Decitabine; first compound 1 µM)
LK-2 | 1.02 | 0.857 | 0.961 | 0.83 | 1.09 | 0.642 | 0.597 | 0.534 | 0.542 | 0.609 | 0.625 | 0.529 | 0.576 | 0.59 | 0.53 | 0.247 | 0.361 | 0.28 | 0.372 | 0.304
LOU-NH91 | 0.706 | 0.774 | 0.718 | 0.801 | 0.805 | 0.553 | 0.49 | 0.468 | 0.528 | 0.566 | 0.536 | 0.572 | 0.482 | 0.543 | 0.516 | 0.805 | 0.814 | 0.703 | 0.834 | 0.761
LU99A | 0.989 | 0.921 | 0.959 | 0.97 | 1.07 | 0.317 | 0.365 | 0.312 | 0.383 | 0.359 | 0.252 | 0.275 | 0.354 | 0.327 | 0.4 | 0.835 | 1.09 | 0.946 | 0.917 | 1.04
NCI-H441 |  |  |  |  |  | 0.46 | 0.495 | 0.538 | 0.483 | 0.409 | 0.449 | 0.435 | 0.512 |  | 0.595 | 0.234 | 0.249 | 0.235 | 0.248 | 0.251
NCI-H522 |  |  |  |  |  |  |  |  |  |  |  |  |  |  |  | 0.681 | 0.624 | 0.643 | 0.618 | 0.657
NCI-H1299 | 0.997 | 0.991 | 0.949 | 1.01 | 0.935 | 0.862 | 0.957 | 0.706 | 0.71 | 0.916 | 0.623 | 0.836 | 0.968 | 0.796 | 0.861 |  |  |  |  | 
NCI-H1563 | 0.912 | 1.37 | 1.03 | 1.04 | 1.02 | 0.648 | 0.697 | 0.616 | 0.684 | 0.653 | 0.596 | 0.632 | 0.622 | 0.664 | 0.661 |  |  |  |  | 
NCI-H1648 |  |  |  |  |  |  |  |  |  |  |  |  |  |  |  | 0.427 | 0.612 | 0.434 | 0.455 | 0.489
NCI-H1703 | 0.903 | 0.975 | 0.925 | 0.982 | 0.694 | 0.26 | 0.245 | 0.225 | 0.263 | 0.229 | 0.239 | 0.238 | 0.244 | 0.233 | 0.238 |  |  |  |  | 
NCI-H2228 | 1.08 | 1.02 | 0.985 | 1.12 | 1.75 | 0.552 | 0.372 | 0.334 | 0.334 | 0.33 | 0.296 | 0.437 | 0.633 | 0.459 | 0.26 |  |  |  |  | 
NCI-H2342 |  |  |  |  |  |  |  |  |  |  |  |  |  |  |  | 0.703 | 0.801 | 0.721 | 0.738 | 0.717
SW 900 |  |  |  |  |  |  |  |  |  |  |  |  |  |  |  | 0.478 | 0.466 |  | 0.394 | 0.421
